Data on 2 compounds can be found in US20230190707A1, “COMPOSITIONS AND METHODS FOR ENHANCING CANCER IMMUNOTHERAPY” (FRED HUTCHINSON CANCER CENTER, priority 2020, published 2023).

In assay [1] the test system is MC38 tumors. The assay is described as follows: Therapeutic treatment with splicing compounds and anti-PD1, MC38 tumors. In kind it is in vivo, mouse. As to conditions: three months following tumor implantation.
Description: Animals were subcutaneously engrafted on bilateral flanks with tumor cells (MC38 1×10^6, B16-F10 0.5×10^6 and LLC 0.25×10^6 cells unless otherwise specified) on day 0, and treated continuously with splicing inhibitors (MS-023 50 mg/kg i.p., indisulam 25 mg/kg i.v. or vehicle) daily for 5 of 7 weekly days starting from day +3 of tumor challenge. […] Mice were weighed weekly for weight-based drug dosing.
The target in assay [2] is H-2D^b (Mus musculus, UniProt P01899). In words: MHC I immunoprecipitation and LC-MS/MS, H-2D^b. In kind it is cell-based. An excerpt:
(§1) Peptide-MHC complexes were isolated as previously described (Abelin, J. G., et al. (2017). Mass Spectrometry Profiling of HLA-Associated Peptidomes in Mono-allelic Cells Enables More Accurate Epitope Prediction. Immunity 46, 315-326, incorporated herein by reference in its entirety), with the following modifications: anti-mouse H-2D^b (clone B22-249.R1, CedarLane laboratories, Cat. CL9001AP) or H-2K^b (clone Y-3, BioXCell Cat. BE0172) non-covalently linked to GammaBind Plus Sepharose beads were co-incubated with soluble lysates overnight. […]
(§2) Desalted, dried samples enriched for MHC peptides were resolubilized in 8 uL 0.10% TFA and 3 uL were loaded onto a packed-in-emitter 12 cm/75 um ID/3 um C18 particles column (Nikkyo Technos Co., Ltd. Japan). […] Precursor mass spectra were recorded from m/z 300-1500 m/z range at 60,000 resolution. […] MS/MS spectra were recorded at 30,000 resolution and lowest mass set at m/z 110. […] All experiments were recorded in FT-mode.
(§3) Mass spectra from all MHC immunoprecipitations were analyzed using Proteome Discoverer v2.4.1.15, with the following workflow. […]

For assay [3], the target named is H-2K^b (Mus musculus, UniProt P01901). The assay is described as follows: MHC I immunoprecipitation and LC-MS/MS, H-2K^b. In kind it is cell-based.
Sequence of H-2K^b (P01901 22-369 limits assumed): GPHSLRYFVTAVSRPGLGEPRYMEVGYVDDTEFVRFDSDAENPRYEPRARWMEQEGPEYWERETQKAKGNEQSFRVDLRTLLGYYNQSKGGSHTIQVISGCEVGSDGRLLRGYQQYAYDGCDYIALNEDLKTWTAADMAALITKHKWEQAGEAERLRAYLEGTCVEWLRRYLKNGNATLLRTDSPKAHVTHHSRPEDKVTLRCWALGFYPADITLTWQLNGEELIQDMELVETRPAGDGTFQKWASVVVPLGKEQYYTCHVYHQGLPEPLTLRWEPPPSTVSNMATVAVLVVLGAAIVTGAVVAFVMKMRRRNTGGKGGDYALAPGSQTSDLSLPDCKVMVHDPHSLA
Description: as §1, §2, §3

Assay [4] has as its system CD8^+ T cells. The assay is described as follows: IFNγ ELISpot with indisulam-treated B16-F10 cells as antigen-presenting cells. The assay is classed as cell-based, mouse. The conditions noted are these: B16-F10 treated with indisulam 1 μM for 96 hours. The method, then:
Such cells were then non-enzymatically harvested, washed repeatedly to remove IFNγ, and irradiated to 60 Gy from a ^60Co source to inhibit growth and further upregulate MHC I. […] IFNγ ELISpot was performed as per manufacturer's instructions (BD Biosciences, Cat. 551083). Spots were imaged and quantified on an Immunospot® analyzer (Cellular Technology Limited, Cleveland, Ohio).

Sequence of H-2D^b (P01899 25-362 limits assumed): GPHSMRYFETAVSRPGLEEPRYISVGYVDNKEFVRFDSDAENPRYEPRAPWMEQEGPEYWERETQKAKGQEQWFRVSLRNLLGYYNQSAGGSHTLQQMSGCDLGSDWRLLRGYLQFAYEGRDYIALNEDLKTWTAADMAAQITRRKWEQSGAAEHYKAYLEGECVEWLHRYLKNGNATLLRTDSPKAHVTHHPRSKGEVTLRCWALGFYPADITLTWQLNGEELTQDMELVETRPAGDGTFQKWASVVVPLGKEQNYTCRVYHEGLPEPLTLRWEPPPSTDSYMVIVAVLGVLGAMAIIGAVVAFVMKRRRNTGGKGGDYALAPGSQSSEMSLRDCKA

On to `CC(C)Oc1ccc(-c2c[nH]cc2CN(C)CCN)cc1` [MS-023], for which the “mice alive and tumor-free” value in assay [1] was determined as 25%.
For the compound `NS(=O)(=O)c1ccc(S(=O)(=O)Nc2cccc3c(Cl)c[nH]c23)cc1` [indisulam], the figures for the “peptides only recovered from indisulam-treated samples” value in assay [2] (B16-F10 cells) and in assay [3] (B16-F10 cells) were 518 and 366, respectively. Also, the “bound peptides arising from mRNA isoforms specifically promoted by indisulam treatment” value in assay [2] (intersection with RNA-seq) worked out at 42; in assay [3] (intersection with RNA-seq) it was 28. Besides, the “antigen-specific T cell activation by indisulam-treated B16-F10 cells” value in assay [4] is “triggers antigen-specific T cell activation”.
